Experimental data as given in PMC5554537 (Frontiers in Pharmacology, 2017).

Assays:
[1] = Stability in mouse plasma (QC samples); type: physicochemical
Source text: using octa-deuterated internal standards of SN30000, M13 and M14 synthesised as previously reported (Wang et al., 2012). Intra- and inter-day precision (expressed as relative standard deviation (RSD) and accuracy (expressed as percentage of the nominal value) were deter mined by analy sis of replicates (n=6) of low and high quality control (QC) samples on three different days. The lower limit of quantitation (LLOQ) was defined as the lowest concentration providing RSD and accuracy < 20%. Recovery from plasma and liver ho mogenates was tested at the three QC levels. The recoveries were evaluated by comparing extracted samples with blank extracted solutions spiked with analytes of the same amount.
Matrix effects, defined as the change in response due to the presence of other substances in the samples, were evaluated by comparing the analytes diluted into the blank plasma or liver extracted solution with that of the same stock solutions diluted in water. Three different concentration levels (low, medium and high QC) were evaluated by analysing three samples at each level. Accuracy , precision, recovery and matrix effects were all acceptable over the concentration ranges evaluated for plas ma (Supplementary Table 1) and for liver homogenates (Supplementary Table 2).
Stability of the analytes in mouse plasma (Supplementary Table 3) or liver homogenate (Supplementary Table 4) was confirmed during holding of QC samples on ice for up to 2 h under nor mal laboratory lighting, although there was a trend towards loss of SN30000 in plasma samples held in clear microcentrifuge tubes which may reflect the known photosensitivity of the compound (Gu et al., 2014). This loss was reduced by use of red microcentrifuge tubes, and eliminated by black tubes. Stability in both matrices was also confir med for one month storage at -80°C and for three freeze-thaw cycles, while MeOH-deproteinised samples w ere stable for 12 h at 4°C in the autosampler (Supplementary Tables

[2] = Plasma protein binding by equilibrium dialysis; type: in vitro ADME; details: NIH-III mouse plasma, 37°C, 6 h
Method: TABLE 11: Protein binding of SN30000, M14 and M18 at the indicated concentrations in NIH-III mouse plasma, measured by equilibrium dialysisa.
(µM) Percent Protein Bound (Mean ± SD)b […]
a Protein binding was evaluated by equilibrium dialysis using a high throughput plate with 12-14KDa dialysis membrane (HTDialysis, Gales Ferry, CT) as described by Banker et al., 2003, with modification. Briefly, 100 µL samples of plasma containing SN30000 or metabolites (M14 and M18) were dialysed against 100 µL PBS (pH 7.4) in an incubator (Innova-42, New Brunswick Scientific, US ) at 37°C with shaking at 80 rpm for 6 h. To achieve matrix match, 10 µL of blank plasma was added to 90 µL of the PBS sample and 90 µL of PBS was added to 10 µL of the plasma sample. Proteins were precipitated with 3 vol of ice-cold MeCN, the centrifuged supernatants were mixed with 2 vol 45 mM ammonium formate buffer pH 4.5, and 50 µL samples were analysed by HPLC with absorbance […]
bValues are mean and SD for triplicate samples.

[3] = plasma deproteinised in 3 vol MeOH, 12 h autosampler at 4°C, nominal SN30000 0.5, M14 0.25, M13 0.1 µM
[4] = plasma deproteinised in 3 vol MeOH, 12 h autosampler at 4°C, nominal SN30000 5, M14 2.5, M13 1 µM
[5] = plasma deproteinised in 3 vol MeOH, 12 h autosampler at 4°C, nominal SN30000 50, M14 25, M13 10 µM
[6] = plasma, 1 month at -80°C, nominal SN30000 0.5, M14 0.25, M13 0.1 µM
[7] = plasma, 1 month at -80°C, nominal SN30000 5, M14 2.5, M13 1 µM
[8] = plasma, 1 month at -80°C, nominal SN30000 50, M14 25, M13 10 µM
[9] = plasma, 1 h on ice, black vial, nominal SN30000 0.5, M14 0.25, M13 0.1 µM
[10] = plasma, 1 h on ice, black vial, nominal SN30000 5, M14 2.5, M13 1 µM
[11] = plasma, 1 h on ice, black vial, nominal SN30000 50, M14 25, M13 10 µM
[12] = plasma, 1 h on ice, clear vial, nominal SN30000 0.5, M14 0.25, M13 0.1 µM
[13] = plasma, 1 h on ice, clear vial, nominal SN30000 5, M14 2.5, M13 1 µM
[14] = plasma, 1 h on ice, clear vial, nominal SN30000 50, M14 25, M13 10 µM
[15] = plasma, 1 h on ice, red vial, nominal SN30000 0.5, M14 0.25, M13 0.1 µM
[16] = plasma, 1 h on ice, red vial, nominal SN30000 5, M14 2.5, M13 1 µM
[17] = plasma, 1 h on ice, red vial, nominal SN30000 50, M14 25, M13 10 µM
[18] = plasma, 2 h on ice, black vial, nominal SN30000 0.5, M14 0.25, M13 0.1 µM
[19] = plasma, 2 h on ice, black vial, nominal SN30000 5, M14 2.5, M13 1 µM
[20] = plasma, 2 h on ice, black vial, nominal SN30000 50, M14 25, M13 10 µM
[21] = plasma, 2 h on ice, clear vial, nominal SN30000 0.5, M14 0.25, M13 0.1 µM
[22] = plasma, 2 h on ice, clear vial, nominal SN30000 5, M14 2.5, M13 1 µM
[23] = plasma, 2 h on ice, clear vial, nominal SN30000 50, M14 25, M13 10 µM
[24] = plasma, 2 h on ice, red vial, nominal SN30000 0.5, M14 0.25, M13 0.1 µM
[25] = plasma, 2 h on ice, red vial, nominal SN30000 5, M14 2.5, M13 1 µM
[26] = plasma, 2 h on ice, red vial, nominal SN30000 50, M14 25, M13 10 µM
[27] = plasma, three freeze-thaw cycles, nominal SN30000 0.5, M14 0.25, M13 0.1 µM
[28] = plasma, three freeze-thaw cycles, nominal SN30000 5, M14 2.5, M13 1 µM
[29] = plasma, three freeze-thaw cycles, nominal SN30000 50, M14 25, M13 10 µM

c1c2c(cc3nc(CCCN4CCOCC4)nnc13)CCC2 [M13]
Bias [1, 3]: -3.42% | Measured conc [1, 3]: 0.10 µM | Bias [1, 4]: -1.26% | Measured conc [1, 4]: 0.99 µM | Bias [1, 5]: 5.41% | Measured conc [1, 5]: 10.54 µM | Bias [1, 6]: 1.68% | Measured conc [1, 6]: 0.10 µM | Bias [1, 7]: 1.94% | Measured conc [1, 7]: 1.00 µM | Bias [1, 8]: 1.85% | Measured conc [1, 8]: 11.05 µM | Bias [1, 9]: -7.00% | Measured conc [1, 9]: 0.09 µM | Bias [1, 10]: -7.17% | Measured conc [1, 10]: 0.93 µM | Bias [1, 11]: 5.90% | Measured conc [1, 11]: 10.59 µM | Bias [1, 12]: -7.05% | Measured conc [1, 12]: 0.09 µM | Bias [1, 13]: -3.76% | Measured conc [1, 13]: 0.96 µM | Bias [1, 14]: -3.61% | Measured conc [1, 14]: 9.64 µM | Bias [1, 15]: -5.72% | Measured conc [1, 15]: 0.09 µM | Bias [1, 16]: -5.29% | Measured conc [1, 16]: 0.95 µM | Bias [1, 17]: 0.10% | Measured conc [1, 17]: 10.01 µM | Bias [1, 18]: -0.52% | Measured conc [1, 18]: 0.10 µM | Bias [1, 19]: 1.13% | Measured conc [1, 19]: 1.01 µM | Bias [1, 20]: 0.55% | Measured conc [1, 20]: 10.06 µM | Bias [1, 21]: -9.85% | Measured conc [1, 21]: 0.09 µM | Bias [1, 22]: -4.92% | Measured conc [1, 22]: 0.95 µM | Bias [1, 23]: -8.95% | Measured conc [1, 23]: 9.10 µM | Bias [1, 24]: -7.29% | Measured conc [1, 24]: 0.09 µM | Bias [1, 25]: -4.71% | Measured conc [1, 25]: 0.95 µM | Bias [1, 26]: -3.91% | Measured conc [1, 26]: 9.61 µM | Bias [1, 27]: -4.05% | Measured conc [1, 27]: 0.10 µM | Bias [1, 28]: -2.61% | Measured conc [1, 28]: 0.97 µM | Bias [1, 29]: 4.39% | Measured conc [1, 29]: 10.44 µM

[O-][n+]1nc(CCCN2CCOCC2)nc2cc3c(cc21)CCC3 [M14]
Bias [1, 3]: -3.45% | Measured conc [1, 3]: 0.24 µM | Bias [1, 4]: -1.00% | Measured conc [1, 4]: 2.48 µM | Bias [1, 5]: 5.16% | Measured conc [1, 5]: 26.29 µM | Bias [1, 6]: 1.83% | Measured conc [1, 6]: 0.23 µM | Bias [1, 7]: 1.63% | Measured conc [1, 7]: 2.42 µM | Bias [1, 8]: 1.59% | Measured conc [1, 8]: 26.65 µM | Bias [1, 9]: -6.07% | Measured conc [1, 9]: 0.23 µM | Bias [1, 10]: -9.84% | Measured conc [1, 10]: 2.25 µM | Bias [1, 11]: 3.20% | Measured conc [1, 11]: 25.80 µM | Bias [1, 12]: -6.07% | Measured conc [1, 12]: 0.23 µM | Bias [1, 13]: -2.06% | Measured conc [1, 13]: 2.45 µM | Bias [1, 14]: -2.50% | Measured conc [1, 14]: 24.37 µM | Bias [1, 15]: -3.25% | Measured conc [1, 15]: 0.24 µM | Bias [1, 16]: -4.29% | Measured conc [1, 16]: 2.39 µM | Bias [1, 17]: 0.26% | Measured conc [1, 17]: 25.07 µM | Bias [1, 18]: -2.23% | Measured conc [1, 18]: 0.24 µM | Bias [1, 19]: -2.62% | Measured conc [1, 19]: 2.43 µM | Bias [1, 20]: -2.33% | Measured conc [1, 20]: 24.42 µM | Bias [1, 21]: -5.90% | Measured conc [1, 21]: 0.24 µM | Bias [1, 22]: 0.51% | Measured conc [1, 22]: 2.51 µM | Bias [1, 23]: -2.43% | Measured conc [1, 23]: 24.39 µM | Bias [1, 24]: -3.27% | Measured conc [1, 24]: 0.24 µM | Bias [1, 25]: -0.72% | Measured conc [1, 25]: 2.48 µM | Bias [1, 26]: 0.70% | Measured conc [1, 26]: 25.17 µM | Bias [1, 27]: -4.07% | Measured conc [1, 27]: 0.24 µM | Bias [1, 28]: -3.19% | Measured conc [1, 28]: 2.42 µM | Bias [1, 29]: 3.92% | Measured conc [1, 29]: 25.98 µM | Percent Protein Bound (Mean ± SD) ([2]; 100 µM): 65.81 ± 0.02%

O=C(O)CCc1nc2cc3c(cc2[n+]([O-])n1)CCC3 [M18]
Percent Protein Bound (Mean ± SD) ([2]; 10 µM): 91.77 ± 0.01% | Percent Protein Bound (Mean ± SD) ([2]; 100 µM): 90.32 ± 0.01%

[O-][n+]1nc(CCCN2CCOCC2)[n+]([O-])c2cc3c(cc21)CCC3 [SN30000, 3-(3-Morpholinopropyl)-7,8-dihydro-6H-indeno[5,6-e][1,2,4]triazine 1,4-dioxide]
Bias [1, 3]: -0.12% | Measured conc [1, 3]: 0.50 µM | Bias [1, 4]: -0.22% | Measured conc [1, 4]: 4.99 µM | Bias [1, 5]: 7.93% | Measured conc [1, 5]: 53.97 µM | Measured conc [1, 6]: 0.48 µM | Bias [1, 7]: 1.44% | Measured conc [1, 7]: 4.92 µM | Bias [1, 8]: 2.04% | Measured conc [1, 8]: 53.90 µM | Bias [1, 9]: -0.80% | Measured conc [1, 9]: 0.50 µM | Bias [1, 10]: -7.17% | Measured conc [1, 10]: 4.64 µM | Bias [1, 11]: 5.03% | Measured conc [1, 11]: 52.5 µM | Bias [1, 12]: -7.83% | Measured conc [1, 12]: 0.46 µM | Bias [1, 13]: -7.91% | Measured conc [1, 13]: 4.60 µM | Bias [1, 14]: -7.21% | Measured conc [1, 14]: 46.39 µM | Bias [1, 15]: -3.33% | Measured conc [1, 15]: 0.48 µM | Bias [1, 16]: -7.29% | Measured conc [1, 16]: 4.64 µM | Bias [1, 17]: -4.85% | Measured conc [1, 17]: 47.57 µM | Bias [1, 18]: 1.31% | Measured conc [1, 18]: 0.51 µM | Bias [1, 19]: 0.11% | Measured conc [1, 19]: 5.01 µM | Bias [1, 20]: 2.32% | Measured conc [1, 20]: 51.16 µM | Bias [1, 21]: -14.4% | Measured conc [1, 21]: 0.43 µM | Bias [1, 22]: -12.3% | Measured conc [1, 22]: 4.38 µM | Bias [1, 23]: -14.9% | Measured conc [1, 23]: 42.53 µM | Bias [1, 24]: -10.09% | Measured conc [1, 24]: 0.45 µM | Bias [1, 25]: -12.57% | Measured conc [1, 25]: 4.37 µM | Bias [1, 26]: -8.13% | Measured conc [1, 26]: 45.94 µM | Bias [1, 27]: 0.56% | Measured conc [1, 27]: 0.50 µM | Bias [1, 28]: -2.87% | Measured conc [1, 28]: 4.86 µM | Bias [1, 29]: 6.72% | Measured conc [1, 29]: 53.36 µM | Percent Protein Bound (Mean ± SD) ([2]; 10 µM): 21.93 ± 0.17% | Percent Protein Bound (Mean ± SD) ([2]; 100 µM): 26.68 ± 0.04%
